Measurements published in BindingDB's records for doi:10.1021/jm00057a007 (Kyowa Hakko Kogyo, 1993).
Counter-ions that a name gives are not always drawn.

Assay: Inhibition of guinea pig acetylcholinesterase
With `CN(C)Cc1ccc(CNCCN2CCN=C2C(C#N)C#N)o1` [2-(1-{2-[(5-Dimethylaminomethyl-furan-2-ylmethyl)-amino]-ethyl}-imidazolidin-2-ylidene)-malononitrile] the IC50 was 390 nM. In the case of `N#CC(C#N)C1=NCCN1CCNCc1ccc(CN2CCCC(O)C2)o1` (stereo unspecified) [2-[1-(2-{[5-(3-Hydroxy-piperidin-1-ylmethyl)-furan-2-ylmethyl]-amino}-ethyl)-imidazolidin-2-ylidene]-malononitrile], the IC50 is reported as 370 nM. In the case of `CC1CCCN(Cc2ccc(CNCCN3CCN=C3C(C#N)C#N)o2)C1` (stereo unspecified) [2-[1-(2-{[5-(3-Methyl-piperidin-1-ylmethyl)-furan-2-ylmethyl]-amino}-ethyl)-imidazolidin-2-ylidene]-malononitrile], the IC50 is reported as 370 nM. Work on `N#CC(C#N)C1=NCCN1CCNCc1ccc(CN2CCC(O)CC2)o1` [2-[1-(2-{[5-(4-Hydroxy-piperidin-1-ylmethyl)-furan-2-ylmethyl]-amino}-ethyl)-imidazolidin-2-ylidene]-malononitrile] yielded an IC50 of 390 nM.

Assay: Inhibition of guinea pig acetylcholinesterase
Work on `CCN(CC)Cc1ccc(CNCCN2CCN=C2C(C#N)C#N)o1` yielded an IC50 of 600 nM. `N#CC(C#N)C1=NCCN1CCNCc1ccc(CN2CC=CCC2)o1` gave an IC50 of 95 nM. With `N#CC(C#N)C1=NCCN1CCNCc1ccc(CN2CCCCCC2)o1` the IC50 was 120 nM. For `COC1CCCN(Cc2ccc(CNCCN3CCN=C3C(C#N)C#N)o2)C1` (stereo unspecified), the IC50 was 3300 nM. `CN=C(NCCNCc1ccc(CN2CCCCC2)o1)C(C#N)C#N` showed an IC50 of 830 nM. `O=c1[nH]c2ccccc2n1CCNCc1ccc(CN2CCCCC2)o1` [1-{2-[(5-Piperidin-1-ylmethyl-furan-2-ylmethyl)-amino]-ethyl}-1,3-dihydro-benzoimidazol-2-one] gave an IC50 of 1200 nM. Compound `N#CC(C#N)C1=NCCN1CCNCc1ccc(CN2CCOCC2)o1` [2-(1-{2-[(5-Morpholin-4-ylmethyl-furan-2-ylmethyl)-amino]-ethyl}-imidazolidin-2-ylidene)-malononitrile] has an IC50 of 11000 nM. In the case of `N#CC(C#N)c1nc2ccccc2n1CCNCc1ccc(CN2CCCCC2)o1` [2-(1-{2-[(5-Piperidin-1-ylmethyl-furan-2-ylmethyl)-amino]-ethyl}-1,3-dihydro-benzoimidazol-2-ylidene)-malononitrile], the IC50 is reported as 73 nM. In the case of `N#CC(C#N)C1=NCCN1CCNCc1ccc(CN2CCCCC2)o1` [2-(1-{2-[(5-Piperidin-1-ylmethyl-furan-2-ylmethyl)-amino]-ethyl}-imidazolidin-2-ylidene)-malononitrile], the IC50 is reported as 30 nM. Compound `N#CC(C#N)C1=NCCN1CCNCc1ccc(CN2CCCC2)o1` [2-(1-{2-[(5-Pyrrolidin-1-ylmethyl-furan-2-ylmethyl)-amino]-ethyl}-imidazolidin-2-ylidene)-malononitrile] has an IC50 of 80 nM. Compound `N#CC(C#N)C1=NCCN1CCNCc1ccc(CN2CCSCC2)o1` [2-(1-{2-[(5-Thiomorpholin-4-ylmethyl-furan-2-ylmethyl)-amino]-ethyl}-imidazolidin-2-ylidene)-malononitrile] has an IC50 of 1500 nM. In the case of `CN=C(NCCNCc1ccc(CN2CCCC2)o1)C(C#N)C#N` [2-(Methylamino-{2-[(5-pyrrolidin-1-ylmethyl-furan-2-ylmethyl)-amino]-ethylamino}-methylene)-malononitrile], the IC50 is reported as 280 nM. `CN=C(NCCNCc1ccc(CN(C)C)o1)C(C#N)C#N` [2-({2-[(5-Dimethylaminomethyl-furan-2-ylmethyl)-amino]-ethylamino}-methylamino-methylene)-malononitrile] showed an IC50 of 630 nM. `CN=C(NCCNCc1ccc(COC)o1)C(C#N)C#N` [2-({2-[(5-Methoxymethyl-furan-2-ylmethyl)-amino]-ethylamino}-methylamino-methylene)-malononitrile] showed an IC50 of over 20000 nM. `CC1CCCCN1Cc1ccc(CNCCN2CCN=C2C(C#N)C#N)o1` (stereo unspecified) [2-[1-(2-{[5-(2-Methyl-piperidin-1-ylmethyl)-furan-2-ylmethyl]-amino}-ethyl)-imidazolidin-2-ylidene]-malononitrile] gave an IC50 of 540 nM. In the case of `CC1CCN(Cc2ccc(CNCCN3CCN=C3C(C#N)C#N)o2)CC1` [2-[1-(2-{[5-(4-Methyl-piperidin-1-ylmethyl)-furan-2-ylmethyl]-amino}-ethyl)-imidazolidin-2-ylidene]-malononitrile], the IC50 is reported as 290 nM. Compound `CCN(C)Cc1ccc(CNCCN2CCN=C2C(C#N)C#N)o1` [2-{1-[2-({5-[(Ethyl-methyl-amino)-methyl]-furan-2-ylmethyl}-amino)-ethyl]-imidazolidin-2-ylidene}-malononitrile] has an IC50 of 430 nM. For `CN=C(NCCNCc1ccc(CN(C(C)C)C(C)C)o1)C(C#N)C#N` [2-{[2-({5-[(Diisopropylamino)-methyl]-furan-2-ylmethyl}-amino)-ethylamino]-methylamino-methylene}-malononitrile], the IC50 was 2100 nM. Work on `CNc1c(NCCNCc2ccc(CN3CCCCC3)o2)c(=O)c1=O` [3-Methylamino-4-{2-[(5-piperidin-1-ylmethyl-furan-2-ylmethyl)-amino]-ethylamino}-cyclobut-3-ene-1,2-dione] yielded an IC50 of 9300 nM. `COc1cc(N)c(Cl)cc1C(=O)NCCNCc1ccc(CN(C)C)o1` [4-Amino-5-chloro-N-{2-[(5-dimethylaminomethyl-furan-2-ylmethyl)-amino]-ethyl}-2-methoxy-benzamide] showed an IC50 of 3100 nM. In the case of `CCN(CC)CCNC(=O)c1cc(Cl)c(N)cc1OC` [4-amino-5-chloro-N-[2-(diethylamino)ethyl]-2-methoxy-benzamide;hydrochloride], the IC50 is reported as over 20000 nM. Work on `CN(C)Cc1ccc(CNCCN2CCN=C2C[N+](=O)[O-])o1` [(5-Dimethylaminomethyl-furan-2-ylmethyl)-[2-(2-nitromethylene-imidazolidin-1-yl)-ethyl]-amine] yielded an IC50 of over 2000 nM.
